Experiments:
DNMT3A/DNMT3L = molecular target: T1, DNMT3A/DNMT3L (Homo sapiens, UniProt Q9Y6K1); assay: Human MTase screening: DNMT3A/DNMT3L; type: biochemical
T1 construct: purchased BPS Bioscience
Procedure: (§1) Assay conditions. The human methyltransferase inhibition assays were performed at BPS Bioscience (San Diego, CA, USA). All of the enzymatic reactions were conducted in duplicate at room temperature for 60-960 min in a 50 μL mixture containing proper methyltransferase assay buffer, S-adenosylmethionine (SAM), enzyme, and the test compound. These 50 μL reactions were carried out in wells of a substrate pre-coated plate. First, enzyme and inhibitor were added to assay wells and preincubated for 30 min at room temperature, then SAM was added to start the reaction. Final DMSO concentration was 1% in all reactions.
(§2) After enzymatic reactions, the reaction mixtures were discarded and each of the wells was washed three times with TBST buffer, and slowly shaken with Blocking Buffer for 10 min. Wells were emptied, and 100 μL of diluted primary antibody was added. The plate was then slowly shaken for 60 minutes at room temperature. […] Immediately, the luminescence of the samples was measured in a BioTek Synergy™ 2 (Winooski, VT, USA) microplate reader using Gen5 software.
(§3) Data analysis. […] The luminescence data/alpha counts were analyzed and compared. […] The percent activity in the presence of each compound was calculated according to the following equation: % activity=(C−C0)/(Ce−C0), where C=the luminescence/alpha counts in the presence of the compound.

SUV39H1 = molecular target: T2, SUV39H1 (Homo sapiens, UniProt O43463); assay: Human MTase screening: SUV39H1; type: biochemical
T2 construct: purchased BPS Bioscience
T2 sequence (O43463 1-412): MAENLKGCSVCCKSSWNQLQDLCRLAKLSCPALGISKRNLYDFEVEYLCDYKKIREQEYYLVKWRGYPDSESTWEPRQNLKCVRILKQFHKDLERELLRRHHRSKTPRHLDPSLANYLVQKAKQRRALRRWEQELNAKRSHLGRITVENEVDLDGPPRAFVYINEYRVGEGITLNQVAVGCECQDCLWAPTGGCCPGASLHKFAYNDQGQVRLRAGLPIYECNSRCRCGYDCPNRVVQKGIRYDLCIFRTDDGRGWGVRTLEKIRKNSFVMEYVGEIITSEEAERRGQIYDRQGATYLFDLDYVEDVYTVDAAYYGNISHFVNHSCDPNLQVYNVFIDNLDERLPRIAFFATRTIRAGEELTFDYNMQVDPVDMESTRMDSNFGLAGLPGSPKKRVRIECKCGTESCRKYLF
Procedure: as §1, §2, §3

PRMT1 = molecular target: T3, PRMT1 (Homo sapiens, UniProt Q99873); assay: Human MTase screening: PRMT1; type: biochemical
T3 construct: purchased BPS Bioscience
Procedure: as §1, §2, §3

[1] = not given; remark: listed apart in the source
METTL3/METTL14 = molecular target: T4, METTL3/METTL14 (Homo sapiens, UniProt Q86U44); assay: Human MTase screening: METTL3/METTL14; type: biochemical
T4 construct: purchased BPS Bioscience
Procedure: as §1, §2, §3

EZH1 = molecular target: T5, EZH1 (Homo sapiens, UniProt Q92800); assay: Human MTase screening: EZH1; type: biochemical
T5 construct: purchased BPS Bioscience
Procedure: as §1, §2, §3

DOT1L = molecular target: T6, DOT1L (Homo sapiens, UniProt Q8TEK3); assay: Human MTase screening: DOT1L; type: biochemical
T6 construct: purchased BPS Bioscience
Procedure: as §1, §2, §3

T4 sequence (Q86U44 whole entry): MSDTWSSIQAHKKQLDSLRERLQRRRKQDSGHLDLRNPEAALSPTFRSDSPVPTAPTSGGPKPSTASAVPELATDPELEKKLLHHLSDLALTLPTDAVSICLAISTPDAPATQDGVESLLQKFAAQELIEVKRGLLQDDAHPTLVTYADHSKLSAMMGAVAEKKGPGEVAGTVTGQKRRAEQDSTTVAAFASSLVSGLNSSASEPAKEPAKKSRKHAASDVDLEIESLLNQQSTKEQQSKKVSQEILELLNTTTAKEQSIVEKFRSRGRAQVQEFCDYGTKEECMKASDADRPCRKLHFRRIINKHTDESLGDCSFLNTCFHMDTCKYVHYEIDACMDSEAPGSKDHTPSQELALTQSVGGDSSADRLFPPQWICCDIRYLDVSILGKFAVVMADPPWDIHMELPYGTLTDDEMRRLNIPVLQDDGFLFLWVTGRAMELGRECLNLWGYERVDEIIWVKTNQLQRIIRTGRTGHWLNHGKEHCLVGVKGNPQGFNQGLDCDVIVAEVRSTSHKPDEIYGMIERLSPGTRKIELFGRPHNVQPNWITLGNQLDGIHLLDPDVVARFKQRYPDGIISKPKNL
T4 sequence (Q9HCE5 whole entry partner): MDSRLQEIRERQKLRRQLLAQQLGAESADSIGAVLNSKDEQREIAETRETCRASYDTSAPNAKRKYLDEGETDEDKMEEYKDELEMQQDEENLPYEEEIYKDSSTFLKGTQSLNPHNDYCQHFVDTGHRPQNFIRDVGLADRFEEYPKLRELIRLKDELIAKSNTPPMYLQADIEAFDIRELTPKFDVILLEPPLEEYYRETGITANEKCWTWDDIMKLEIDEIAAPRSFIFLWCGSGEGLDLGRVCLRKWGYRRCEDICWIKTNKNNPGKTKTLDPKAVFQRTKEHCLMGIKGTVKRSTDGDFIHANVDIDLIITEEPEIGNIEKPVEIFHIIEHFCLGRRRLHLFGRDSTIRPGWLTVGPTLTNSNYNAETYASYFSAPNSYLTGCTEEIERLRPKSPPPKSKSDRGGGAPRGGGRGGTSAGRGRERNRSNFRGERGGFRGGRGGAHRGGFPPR
T3 sequence (Q99873 whole entry): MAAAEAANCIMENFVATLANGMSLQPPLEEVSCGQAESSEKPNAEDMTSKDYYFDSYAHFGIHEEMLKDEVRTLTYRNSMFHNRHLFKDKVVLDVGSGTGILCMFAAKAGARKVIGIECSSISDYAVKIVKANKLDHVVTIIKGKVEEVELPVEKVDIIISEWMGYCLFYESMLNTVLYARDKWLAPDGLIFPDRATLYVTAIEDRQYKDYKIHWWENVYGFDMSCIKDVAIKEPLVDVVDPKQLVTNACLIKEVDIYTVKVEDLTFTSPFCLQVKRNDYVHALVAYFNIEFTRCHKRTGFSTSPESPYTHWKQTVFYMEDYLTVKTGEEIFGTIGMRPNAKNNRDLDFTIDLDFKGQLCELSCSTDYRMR
T1 sequence (Q9Y6K1 whole entry, looked up): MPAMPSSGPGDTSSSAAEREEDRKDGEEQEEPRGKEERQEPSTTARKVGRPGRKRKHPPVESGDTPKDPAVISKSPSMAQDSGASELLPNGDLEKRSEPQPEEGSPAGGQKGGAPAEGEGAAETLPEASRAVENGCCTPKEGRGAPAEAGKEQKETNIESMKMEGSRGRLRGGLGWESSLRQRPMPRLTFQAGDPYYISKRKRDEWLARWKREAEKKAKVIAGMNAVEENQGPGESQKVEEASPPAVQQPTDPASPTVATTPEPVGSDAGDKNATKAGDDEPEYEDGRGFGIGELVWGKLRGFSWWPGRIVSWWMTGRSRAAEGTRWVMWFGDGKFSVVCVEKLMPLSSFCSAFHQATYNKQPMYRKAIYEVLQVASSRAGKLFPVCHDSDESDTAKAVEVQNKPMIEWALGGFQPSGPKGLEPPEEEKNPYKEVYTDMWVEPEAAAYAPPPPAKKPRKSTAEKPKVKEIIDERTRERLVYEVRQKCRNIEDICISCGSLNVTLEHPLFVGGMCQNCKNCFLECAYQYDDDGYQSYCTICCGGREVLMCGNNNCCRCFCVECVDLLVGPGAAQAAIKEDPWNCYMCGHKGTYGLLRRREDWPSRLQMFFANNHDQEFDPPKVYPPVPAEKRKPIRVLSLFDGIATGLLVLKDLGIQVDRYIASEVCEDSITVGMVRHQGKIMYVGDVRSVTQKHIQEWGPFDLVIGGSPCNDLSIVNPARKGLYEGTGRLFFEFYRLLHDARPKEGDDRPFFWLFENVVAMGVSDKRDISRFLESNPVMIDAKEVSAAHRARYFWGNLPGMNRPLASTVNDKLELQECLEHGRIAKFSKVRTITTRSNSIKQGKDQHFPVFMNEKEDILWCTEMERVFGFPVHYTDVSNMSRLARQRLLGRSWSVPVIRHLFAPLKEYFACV
T1 sequence (Q9UJW3 whole entry partner): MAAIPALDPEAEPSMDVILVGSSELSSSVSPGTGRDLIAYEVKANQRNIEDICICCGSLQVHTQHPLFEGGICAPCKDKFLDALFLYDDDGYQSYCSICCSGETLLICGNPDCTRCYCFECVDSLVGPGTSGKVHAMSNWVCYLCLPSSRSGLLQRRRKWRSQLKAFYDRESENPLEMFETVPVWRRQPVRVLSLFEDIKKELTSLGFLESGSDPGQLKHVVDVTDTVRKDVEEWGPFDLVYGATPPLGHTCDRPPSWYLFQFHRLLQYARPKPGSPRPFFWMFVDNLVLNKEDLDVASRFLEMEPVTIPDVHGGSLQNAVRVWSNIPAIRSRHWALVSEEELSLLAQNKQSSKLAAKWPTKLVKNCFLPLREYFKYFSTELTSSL
T6 sequence (Q8TEK3 whole entry): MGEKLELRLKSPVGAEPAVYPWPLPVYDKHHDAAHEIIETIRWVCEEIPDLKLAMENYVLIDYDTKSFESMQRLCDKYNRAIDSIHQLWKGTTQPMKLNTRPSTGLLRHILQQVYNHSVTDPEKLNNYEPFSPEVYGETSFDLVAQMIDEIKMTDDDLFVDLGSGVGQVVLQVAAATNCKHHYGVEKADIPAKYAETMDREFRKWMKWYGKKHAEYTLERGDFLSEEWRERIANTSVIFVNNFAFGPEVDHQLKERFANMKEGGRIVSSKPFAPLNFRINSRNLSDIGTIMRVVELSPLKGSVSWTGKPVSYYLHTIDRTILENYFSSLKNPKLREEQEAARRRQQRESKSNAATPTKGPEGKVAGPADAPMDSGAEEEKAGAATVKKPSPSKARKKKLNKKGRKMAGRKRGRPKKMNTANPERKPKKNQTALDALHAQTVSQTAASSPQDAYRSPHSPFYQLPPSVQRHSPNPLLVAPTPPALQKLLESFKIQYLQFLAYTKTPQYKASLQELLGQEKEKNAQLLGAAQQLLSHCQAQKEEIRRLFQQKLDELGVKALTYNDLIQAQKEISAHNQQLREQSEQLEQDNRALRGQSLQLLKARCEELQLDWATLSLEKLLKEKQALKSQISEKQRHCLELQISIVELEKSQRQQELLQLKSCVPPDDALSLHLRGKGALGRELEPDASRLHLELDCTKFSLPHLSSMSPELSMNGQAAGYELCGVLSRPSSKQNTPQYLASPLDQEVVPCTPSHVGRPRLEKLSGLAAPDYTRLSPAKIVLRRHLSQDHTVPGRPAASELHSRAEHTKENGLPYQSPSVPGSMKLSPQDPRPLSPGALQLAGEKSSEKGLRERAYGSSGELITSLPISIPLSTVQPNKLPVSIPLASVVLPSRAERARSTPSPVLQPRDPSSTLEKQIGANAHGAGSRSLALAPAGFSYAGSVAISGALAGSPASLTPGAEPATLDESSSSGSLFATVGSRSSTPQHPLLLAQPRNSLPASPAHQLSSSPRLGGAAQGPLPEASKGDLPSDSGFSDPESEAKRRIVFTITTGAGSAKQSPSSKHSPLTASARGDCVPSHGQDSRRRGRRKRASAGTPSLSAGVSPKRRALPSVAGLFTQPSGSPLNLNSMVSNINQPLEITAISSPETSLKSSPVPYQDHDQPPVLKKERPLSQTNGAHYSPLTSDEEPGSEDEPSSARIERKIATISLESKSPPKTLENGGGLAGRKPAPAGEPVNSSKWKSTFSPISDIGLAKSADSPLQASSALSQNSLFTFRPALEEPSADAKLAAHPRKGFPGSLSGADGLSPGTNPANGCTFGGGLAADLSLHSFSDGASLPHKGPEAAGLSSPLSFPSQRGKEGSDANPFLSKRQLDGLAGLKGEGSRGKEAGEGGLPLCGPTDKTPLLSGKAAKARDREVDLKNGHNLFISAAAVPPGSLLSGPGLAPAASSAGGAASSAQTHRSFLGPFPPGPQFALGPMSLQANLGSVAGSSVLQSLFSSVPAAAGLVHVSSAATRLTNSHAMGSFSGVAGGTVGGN

Structure (SMILES): Nc1ncnc2c1ncn2[C@@H]1O[C@H](CNS(=O)(=O)c2ccc3ccccc3c2)[C@@H](O)[C@H]1O [Compound 3, N-(((2R,3S,4R,5R)-5-(6-Amino-9H-purin-9-yl)-3,4-dihydroxytetrahydrofuran-2-yl)methyl)naphthalene-2-sulfonamide]
- inhibition at 10 µM (DNMT3A/DNMT3L): 4%
- stability in human liver S9 fractions: resistant to phase I and II transformations
- inhibition at 10 µM (SUV39H1): 11%
- inhibition at 10 µM (PRMT1): 5%
- stability in mouse liver S9 fractions [1]: resistant to phase I and II transformations
- inhibition at 10 µM (METTL3/METTL14): 10%
- inhibition at 10 µM (EZH1): 2%
- inhibition at 10 µM (DOT1L): 10%

From patent publication US20260000698A1 (priority 2022, published 2026)
